Reference: patent publication US20130210851A1, “Crystalline forms of a hexahydrofuro[3,4-c]quinoline derivative” (Boehringer Ingelheim International GmbH, priority 2011, published 2013)
Entries after “also recorded” stand apart in the source; their conditions may differ. Read-outs that look alike come from different tables or passages of the source. Blank lines part the entries; values can stand above or below the compound they belong to.

What was measured:
Type in all cases: physicochemical
[1] = Hygroscopic behaviour, water sorption isotherms (DVS-1); conditions: 25° C.; for hygroscopicity (in words): sorption isotherms 10% to 90% r.h.; for uptake of water: up to 90% r.h.
Protocol: To study the hygroscopic behaviour of this material, sorption isotherms are registered on a DVS-1 water sorption monitor from Surface Measurement Systems. Adsorption and desorption isotherms are performed at 25° C. with 10% r.h. step intervals ranging from 10% r.h. up to 90% r.h.

[2] = Solubility of the saturated solution in aqueous media; conditions: thermodynamic from solid, 48 h shaking at room temperature, read-out: solubility RT - values
[3] = Intrinsic dissolution rate in aqueous media (rotating disc method); conditions: 37° C., 200 rpm
Protocol: The intrinsic dissolution rate of the crystalline hydrochloride salt form of (3R,9S)-4-isopropyl-7,7-dimethyl-3-(4-(trifluoromethyl)phenyl)-2′,3′,5′,6,6′,7,8,9-octahydro-3H-spiro[furo[3,4-c]quinoline-1,4′-pyran]-9-ol is determined in aqueous media covering a range of pH 1.1-7.4 using the rotating disc method which maintains a constant surface area. 5 mg drug substance is compressed to form a disc at 356.1 N for 60 s. These discs are mounted to specially designed sample holders which fit into a Sotax dissolution tester. The dissolution media (37° C.) are stirred at 200 rpm. Samples are automatically withdrawn every second minute from the dissolution vessel and assayed via UV spectrophotometry. The intrinsic dissolution rate expressed in μg/cm^2/min is calculated using the slope of the concentration versus time plot and from the linear portion of the slope of the dissolution curve, volume of dissolution medium (35 ml) and area (diameter: 2 mm) of the exposed disk.

[4] = Solid state stability under harsh stress conditions
Excerpt: Under all applied severe stress conditions only very low or minor decomposition (Σ</=about 6% degradation impurities measured as peak area percentage from HPLC-diagrams using a standard gradient technique) can be observed.

hygroscopicity (in words) [1]: not hygroscopic | uptake of water [1]: about 0.9%
SMILES: Br.CC(C)c1nc2c(c3c1[C@@H](c1ccc(C(F)(F)F)cc1)OC31CCOCC1)[C@@H](O)CC(C)(C)C2 [crystalline hydrobromide salt form, Hydrogen Bromide Salt of (3R,9S)-4-isopropyl-7,7-dimethyl-3-(4-(trifluoromethyl)phenyl)-2′,3′,5′,6,6′,7,8,9-octahydro-3H-spiro[furo[3,4-c]quinoline-1,4′-pyran]-9-ol]

solubility at 48 h ([2]; McIlvaine buffer, aqueous buffer, McIlvaine pH 2.2, intrinsic pH 2.0): 1600 µg/mL | solubility at 48 h ([2]; McIlvaine buffer, aqueous buffer, McIlvaine pH 3.0, intrinsic pH 3.0): 400 µg/mL | solubility at 48 h ([2]; McIlvaine buffer, aqueous buffer, McIlvaine pH 4.0, intrinsic pH 4.0): 90 µg/mL | solubility at 48 h ([2]; McIlvaine buffer, aqueous buffer, McIlvaine pH 4.5, intrinsic pH 4.6): 30 µg/mL | solubility at 48 h ([2]; McIlvaine buffer, aqueous buffer, McIlvaine pH 5.0, intrinsic pH 5.1): 3 µg/mL | solubility at 48 h ([2]; McIlvaine buffer, aqueous buffer, McIlvaine pH 6.0, intrinsic pH 6.2): < 3 µg/mL | solubility at 48 h ([2]; McIlvaine buffer, aqueous buffer, McIlvaine pH 6.8, intrinsic pH 7.0): < 3 µg/mL | solubility at 48 h ([2]; McIlvaine buffer, aqueous buffer, McIlvaine pH 7.4, intrinsic pH 7.7, determined by LC/MS): 0.26 µg/mL | solubility at 48 h ([2]; Sorensen buffer, aqueous buffer, Sorensen pH 10.0, intrinsic pH 9.6): < 3 µg/mL | solubility at 48 h ([2]; acetate buffer, aqueous buffer, Acetate pH 3.0, intrinsic pH 3.0): 200 µg/mL | solubility at 48 h ([2]; acetate buffer, aqueous buffer, Acetate pH 4.0, intrinsic pH 4.2): 60 µg/mL | solubility at 48 h ([2]; acetate buffer, aqueous buffer, Acetate pH 5.0, intrinsic pH 5.3): 6 µg/mL | solubility at 48 h ([2]; simulated gastric fluid, 0.01N HCl, intrinsic pH 1.9): 1900 µg/mL | solubility at 48 h ([2]; simulated gastric fluid, 0.1N HCl, intrinsic pH 0.9): 4100 µg/mL | solubility at 48 h ([2]; FaSSIF (Fasted State Simulated Intestinal), intrinsic pH 6.5): 20 µg/mL | solubility at 48 h ([2]; FeSSIF (Fed State Simulated Intestinal), intrinsic pH 5.0): 30 µg/mL | solubility at 48 h ([2]; water, intrinsic pH 1.6): 3100 µg/mL | dissolution rate ([3]; 0.1N HCl): 230 μg/cm^2/min | dissolution rate ([3]; pH 2.2 (McIlvaine)): 250 μg/cm^2/min | dissolution rate ([3]; pH 3.0 (McIlvaine)): 60 μg/cm^2/min | dissolution rate ([3]; pH 4.0 (McIlvaine)): 10 μg/cm^2/min | dissolution rate ([3]; pH 4.5 (McIlvaine)): 10 μg/cm^2/min | dissolution rate ([3]; water): 10 μg/cm^2/min | decomposition, sum of degradation impurities (peak area percentage from HPLC) ([4]; all stress conditions: 24 hours at 105° C., 72 hours at 60° C. and 70% rel. humid., 24 hours in a Xenotester): ≤ 6% | solid state stability (in words) ([4]; harsh stress conditions for solid state): stable in the solid state
SMILES: CC(C)c1nc2c(c3c1[C@@H](c1ccc(C(F)(F)F)cc1)OC31CCOCC1)[C@@H](O)CC(C)(C)C2.Cl [crystalline hydrochloride salt form, Hydrogen Chloride Salt of (3R,9S)-4-isopropyl-7,7-dimethyl-3-(4-(trifluoromethyl)phenyl)-2′,3′,5′,6,6′,7,8,9-octahydro-3H-spiro[furo[3,4-c]quinoline-1,4′-pyran]-9-ol]
hygroscopicity (in words) [1]: not hygroscopic; also recorded: non-hygroscopic

hygroscopicity (in words) [1]: not hygroscopic | uptake of water [1]: about 0.2%
SMILES: CC(C)c1nc2c(c3c1[C@@H](c1ccc(C(F)(F)F)cc1)OC31CCOCC1)[C@@H](O)CC(C)(C)C2 [compound of formula (I), (3R,9S)-4-isopropyl-7,7-dimethyl-3-(4-(trifluoromethyl)phenyl)-2′,3′,5′,6,6′,7,8,9-octahydro-3H-spiro[furo[3,4-c]quinoline-1,4′-pyran]-9-ol]
